{"source": "patent US10945932B2", "about": "“Prebiotic oral care compositions containing carboxylic acids” (COLGATE-PALMOLIVE COMPANY, priority 2013, dated 2021)", "key": {"Streptococcus sanguinis": {"test_system": "Streptococcus sanguinis", "settings": "S sanguinis, BHI", "protocol": "(§2) Late exponential growth phase liquid cultures were prepared by transferring the respective bacterium from blood agar plates to BHI and overnight incubation at 37° C. in an anaerobic atmosphere for A. viscosus, V. parvula, F. nucleatum, P. gingivalis, P. intermedia, T forsythia, A. naeslundii, and C. sputigena, and in a 5% CO2 environment for S. salivarius, S. sanguinis, S. mitis, A. actinomycetemcomitans, S. mutans, S. sobrinus and S. gordonii. Overnight cultures were transferred to BHI and adjusted to a concentration of 1×10^7 CFU/ml (colony forming units per ml) by measuring the optical density at 600 nm (OD600) (BioRad SmartSpec 3000). For each strain, 200 μl of the bacterial suspension was added to a 96-well plate containing 20 μl of the respective carboxylic acids. Final concentrations of the carboxylic acids were set to 5, 10, 20 and 25 μmol/ml. […] Plates were incubated as previously described.\n(§3) For each combination of bacterium/carboxylic acid, and for each of their respective controls (i.e. the particular bacterium in the nutritionally rich medium with no carboxylic acid), the optical density was measured at 630 nm (OD630) at 0 h, 24 h and 48 h (Thermo Scientific Multiskan Ascent). Additionally, the OD630 for combinations of bacterium/carboxylic acid grown in a 5% CO2 environment were also measured every hour between 0 h and 9 h.\n(§4) The experiment was carried out on three different days (thus providing 3 biological replicas) and on each day the experiment was carried out in quadruple (thus providing 4 technical replicas) for each combination of bacterium with carboxylic acid and for each control. For each day and for each combination, the average (mean) of the values obtained (as detailed above) for the four technical replicas was calculated to provide a single value for each combination on each day."}, "Streptococcus gordonii [1]": {"test_system": "Streptococcus gordonii", "settings": "S gordonii, BHI", "protocol": "as §2, §3, §4"}, "Streptococcus mutans": {"test_system": "Streptococcus mutans", "settings": "S mutans, BHI", "protocol": "as §2, §3, §4"}, "Streptococcus salivarius": {"test_system": "Streptococcus salivarius", "experiment": "Biofilm growth assay in BHI, crystal violet", "type": "cell-based", "settings": "S salivarius", "procedure": "(§1) Late exponential growth phase liquid cultures were prepared by transferring the respective bacterium from blood agar plates to BHI and overnight incubation at 37° C. in an anaerobic atmosphere for A. viscosus, V. parvula, F. nucleatum, P. gingivalis, P. intermedia, T. forsythia, A. naeslundii, and C. sputigena, and in a 5% CO2 environment for S. salivarius, S. sanguinis, S. mitis, A. actinomycetemcomitans, S. mutans, and S. gordonii. […] Additionally, for each bacterium tested, a background control, to correct for background staining, was added. This background control contained the bacterium tested and 0.03 weight % chlorhexidine, as an antiseptic. Plates were incubated as previously described. After 48 hrs the supernatant was removed from the wells of the plates. The wells were washed twice with 1×100 μL/PBS (phosphate buffered saline), fixed for 20 minutes with 96% vol. ethanol (96% vol. solution in water) and the biofilm retained at the bottom of the wells was stained with 1 weight % crystal violet (1 weight % solution in water). […] Quantification of the stained biofilm was performed by measuring the absorbance at 630 nm using a Multiskan Ascent microplate reader (Thermo Scientific)."}, "Actinomyces naeslundii": {"test_system": "Actinomyces naeslundii", "experiment": "Biofilm growth assay in BHI, crystal violet", "type": "cell-based", "settings": "A naeslundii", "procedure": "as §1"}, "Prevotella intermedia": {"test_system": "Prevotella intermedia", "experiment": "Biofilm growth assay in BHI, crystal violet", "type": "cell-based", "settings": "P intermedia", "procedure": "as §1"}, "Streptococcus gordonii [2]": {"test_system": "Streptococcus gordonii", "experiment": "Biofilm growth assay in BHI, crystal violet", "type": "cell-based", "settings": "S gordonii", "procedure": "as §1"}, "Tannerella forsythia": {"test_system": "Tannerella forsythia", "experiment": "Biofilm growth assay in BHI, crystal violet", "type": "cell-based", "settings": "T forsythia", "procedure": "as §1"}, "Capnocytophaga sputigena": {"test_system": "Capnocytophaga sputigena", "experiment": "Biofilm growth assay in BHI, crystal violet", "type": "cell-based", "settings": "C sputigena", "procedure": "as §1"}, "Actinomyces viscosus": {"test_system": "Actinomyces viscosus", "experiment": "Biofilm growth assay in BHI, crystal violet", "type": "cell-based", "settings": "A viscosus", "procedure": "as §1"}, "Veillonella parvula": {"test_system": "Veillonella parvula", "experiment": "Biofilm growth assay in BHI, crystal violet", "type": "cell-based", "settings": "V parvula", "procedure": "as §1"}}, "note": "Read-outs that look alike come from different tables or passages of the source."}
{"smiles": "N[C@@H](CC(=O)O)C(=O)O", "note": "[L-aspartic acid]", "values": [{"measurement": "extent of growth, maximal OD630 over 48 hr divided by maximal OD of control (control = 1)", "setting": "Streptococcus sanguinis; 5 μmol/ml", "value": 0.8662}, {"measurement": "extent of growth, maximal OD630 over 48 hr divided by maximal OD of control (control = 1)", "setting": "Streptococcus sanguinis; 10 μmol/ml", "value": 0.8606}, {"measurement": "extent of growth, maximal OD630 over 48 hr divided by maximal OD of control (control = 1)", "setting": "Streptococcus sanguinis; 20 μmol/ml", "value": 0.8622}, {"measurement": "extent of growth, maximal OD630 over 48 hr divided by maximal OD of control (control = 1)", "setting": "Streptococcus sanguinis; 25 μmol/ml", "value": 0.8613}, {"measurement": "extent of growth, maximal OD630 over 48 hr divided by maximal OD of control (control = 1)", "setting": "Streptococcus gordonii [1]; 5 μmol/ml", "value": 0.9448}, {"measurement": "extent of growth, maximal OD630 over 48 hr divided by maximal OD of control (control = 1)", "setting": "Streptococcus gordonii [1]; 10 μmol/ml", "value": 0.9400}, {"measurement": "extent of growth, maximal OD630 over 48 hr divided by maximal OD of control (control = 1)", "setting": "Streptococcus gordonii [1]; 20 μmol/ml", "value": 0.9583}, {"measurement": "extent of growth, maximal OD630 over 48 hr divided by maximal OD of control (control = 1)", "setting": "Streptococcus gordonii [1]; 25 μmol/ml", "value": 0.9466}, {"measurement": "extent of growth, maximal OD630 over 48 hr divided by maximal OD of control (control = 1)", "setting": "Streptococcus mutans; 5 μmol/ml", "value": 0.9466}, {"measurement": "extent of growth, maximal OD630 over 48 hr divided by maximal OD of control (control = 1)", "setting": "Streptococcus mutans; 10 μmol/ml", "value": 0.9230}, {"measurement": "extent of growth, maximal OD630 over 48 hr divided by maximal OD of control (control = 1)", "setting": "Streptococcus mutans; 20 μmol/ml", "value": 0.9036}, {"measurement": "extent of growth, maximal OD630 over 48 hr divided by maximal OD of control (control = 1)", "setting": "Streptococcus mutans; 25 μmol/ml", "value": 0.9149}, {"measurement": "biofilm growth, OD at 630 nm (crystal violet) at 48 hrs divided by OD of control (control = 1)", "setting": "Streptococcus salivarius; 5 μmol/ml", "value": 1.4152}, {"measurement": "biofilm growth, OD at 630 nm (crystal violet) at 48 hrs divided by OD of control (control = 1)", "setting": "Streptococcus salivarius; 10 μmol/ml", "value": 1.9207}, {"measurement": "biofilm growth, OD at 630 nm (crystal violet) at 48 hrs divided by OD of control (control = 1)", "setting": "Streptococcus salivarius; 20 μmol/ml", "value": 2.4799}, {"measurement": "biofilm growth, OD at 630 nm (crystal violet) at 48 hrs divided by OD of control (control = 1)", "setting": "Streptococcus salivarius; 25 μmol/ml", "value": 3.0682}, {"measurement": "biofilm growth, OD at 630 nm (crystal violet) at 48 hrs divided by OD of control (control = 1)", "setting": "Actinomyces naeslundii; 5 μmol/ml", "value": 1.1735}, {"measurement": "biofilm growth, OD at 630 nm (crystal violet) at 48 hrs divided by OD of control (control = 1)", "setting": "Actinomyces naeslundii; 10 μmol/ml", "value": 1.2585}, {"measurement": "biofilm growth, OD at 630 nm (crystal violet) at 48 hrs divided by OD of control (control = 1)", "setting": "Actinomyces naeslundii; 20 μmol/ml", "value": 1.2309}, {"measurement": "biofilm growth, OD at 630 nm (crystal violet) at 48 hrs divided by OD of control (control = 1)", "setting": "Actinomyces naeslundii; 25 μmol/ml", "value": 1.1175}, {"measurement": "biofilm growth, OD at 630 nm (crystal violet) at 48 hrs divided by OD of control (control = 1)", "setting": "Prevotella intermedia; 5 μmol/ml", "value": 1.4322}, {"measurement": "biofilm growth, OD at 630 nm (crystal violet) at 48 hrs divided by OD of control (control = 1)", "setting": "Prevotella intermedia; 10 μmol/ml", "value": 1.6018}, {"measurement": "biofilm growth, OD at 630 nm (crystal violet) at 48 hrs divided by OD of control (control = 1)", "setting": "Prevotella intermedia; 20 μmol/ml", "value": 1.6295}, {"measurement": "biofilm growth, OD at 630 nm (crystal violet) at 48 hrs divided by OD of control (control = 1)", "setting": "Prevotella intermedia; 25 μmol/ml", "value": 1.5442}, {"measurement": "biofilm growth, OD at 630 nm (crystal violet) at 48 hrs divided by OD of control (control = 1)", "setting": "Streptococcus gordonii [2]; 5 μmol/ml", "value": 1.3455}, {"measurement": "biofilm growth, OD at 630 nm (crystal violet) at 48 hrs divided by OD of control (control = 1)", "setting": "Streptococcus gordonii [2]; 10 μmol/ml", "value": 1.6702}, {"measurement": "biofilm growth, OD at 630 nm (crystal violet) at 48 hrs divided by OD of control (control = 1)", "setting": "Streptococcus gordonii [2]; 20 μmol/ml", "value": 2.1065}, {"measurement": "biofilm growth, OD at 630 nm (crystal violet) at 48 hrs divided by OD of control (control = 1)", "setting": "Streptococcus gordonii [2]; 25 μmol/ml", "value": 2.2320}, {"measurement": "biofilm growth, OD at 630 nm (crystal violet) at 48 hrs divided by OD of control (control = 1)", "setting": "Tannerella forsythia; 5 μmol/ml", "value": 1.0369}, {"measurement": "biofilm growth, OD at 630 nm (crystal violet) at 48 hrs divided by OD of control (control = 1)", "setting": "Tannerella forsythia; 10 μmol/ml", "value": 0.9131}, {"measurement": "biofilm growth, OD at 630 nm (crystal violet) at 48 hrs divided by OD of control (control = 1)", "setting": "Tannerella forsythia; 20 μmol/ml", "value": 1.0055}, {"measurement": "biofilm growth, OD at 630 nm (crystal violet) at 48 hrs divided by OD of control (control = 1)", "setting": "Tannerella forsythia; 25 μmol/ml", "value": 0.9659}, {"measurement": "biofilm growth, OD at 630 nm (crystal violet) at 48 hrs divided by OD of control (control = 1)", "setting": "Capnocytophaga sputigena; 5 μmol/ml", "value": 0.9508}, {"measurement": "biofilm growth, OD at 630 nm (crystal violet) at 48 hrs divided by OD of control (control = 1)", "setting": "Capnocytophaga sputigena; 10 μmol/ml", "value": 0.9546}, {"measurement": "biofilm growth, OD at 630 nm (crystal violet) at 48 hrs divided by OD of control (control = 1)", "setting": "Capnocytophaga sputigena; 20 μmol/ml", "value": 0.9747}, {"measurement": "biofilm growth, OD at 630 nm (crystal violet) at 48 hrs divided by OD of control (control = 1)", "setting": "Capnocytophaga sputigena; 25 μmol/ml", "value": 0.9785}, {"measurement": "biofilm growth, OD at 630 nm (crystal violet) at 48 hrs divided by OD of control (control = 1)", "setting": "Actinomyces viscosus; 5 μmol/ml", "value": 0.5576}, {"measurement": "biofilm growth, OD at 630 nm (crystal violet) at 48 hrs divided by OD of control (control = 1)", "setting": "Actinomyces viscosus; 10 μmol/ml", "value": 0.5650}, {"measurement": "biofilm growth, OD at 630 nm (crystal violet) at 48 hrs divided by OD of control (control = 1)", "setting": "Actinomyces viscosus; 20 μmol/ml", "value": 0.5834}, {"measurement": "biofilm growth, OD at 630 nm (crystal violet) at 48 hrs divided by OD of control (control = 1)", "setting": "Actinomyces viscosus; 25 μmol/ml", "value": 0.5289}, {"measurement": "biofilm growth, OD at 630 nm (crystal violet) at 48 hrs divided by OD of control (control = 1)", "setting": "Veillonella parvula; 5 μmol/ml", "value": 1.1641}, {"measurement": "biofilm growth, OD at 630 nm (crystal violet) at 48 hrs divided by OD of control (control = 1)", "setting": "Veillonella parvula; 10 μmol/ml", "value": 1.2799}]}
